# Source: PubChem BioAssay AID1329 (NMMLSC, 2008)
# Active and inactive are the calls of the source. No rule for the calls is given here.
# Molecular target: Induced myeloid leukemia cell differentiation protein Mcl-1 (Homo sapiens) (UniProt Q07820)
# Test: Mcl-1/Bim interaction regulators – biochemical, bead-based flow cytometry, multiplexed, human, dose response (AID 1329)
# Settings: Bim peptide-Mcl-1 binding, MCF
# Induced myeloid leukemia cell differentiation protein Mcl-1 (Homo sapiens), sequence (Q07820 whole entry, looked up): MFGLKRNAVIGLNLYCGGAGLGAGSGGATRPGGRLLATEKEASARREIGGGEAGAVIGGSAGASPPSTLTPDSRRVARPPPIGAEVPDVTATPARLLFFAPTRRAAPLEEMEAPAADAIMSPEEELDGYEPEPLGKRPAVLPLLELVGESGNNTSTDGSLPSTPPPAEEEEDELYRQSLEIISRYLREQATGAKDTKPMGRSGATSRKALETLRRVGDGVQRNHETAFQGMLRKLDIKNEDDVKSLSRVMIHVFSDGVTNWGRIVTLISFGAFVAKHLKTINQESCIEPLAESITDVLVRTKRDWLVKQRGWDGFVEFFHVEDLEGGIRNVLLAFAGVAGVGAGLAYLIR
row,Compound,percent span
1,CCOC(=O)CCCNC(=O)c1cncc(O)c1,inactive
2,Cc1ccc(-c2ccc(CCC(=O)O)n2NC(=O)c2cccs2)cc1,inactive
3,CCOC(=O)c1cc2c(=O)n3ccccc3nc2n(Cc2ccco2)c1=NC(=O)c1ccccc1OC,inactive
4,Cc1ccnc(NS(=O)(=O)c2ccc(NC(=O)c3c(-c4ccccc4Cl)noc3C)cc2)n1,inactive
5,Cc1ccc(NC2=C(NC(=O)c3ccccc3)C(=O)c3ccccc3C2=O)cc1Cl,inactive
6,O=C(Nc1ccccn1)c1cc2ccccc2o1,inactive
7,COc1ccc(OCCNC(=O)c2ccccc2OCC(=O)N2CCCCC2)cc1,inactive
8,Fc1ccc(C2=Nn3c(Cc4ccccc4F)nnc3SC2)cc1,inactive
9,CC(=O)Nc1ccc2nc(CN3CCN(CC(C)C)C(CCO)C3)ccc2c1 (stereo not drawn),inactive
10,N#Cc1ccc(N=c2ssnc2Cl)cc1,inactive
11,CCOc1ccc(CNc2ccc(N3CCCC3)cc2)cc1,inactive
12,COc1cccc(C(=O)/C=C/Nc2ccc(S(=O)(=O)Nc3onc(C)c3C)cc2)c1,inactive
13,CN(C)CCNC(=O)C(=O)C1C(=O)Nc2ccccc21 (stereo not drawn),inactive
14,c1ccc(-c2nc(N3CCCCC3)nc3ccccc23)cc1,inactive
15,Cc1ccc(-c2cc(-c3ccc4c(c3)OCO4)c(C#N)c(N)n2)o1,inactive
16,CNC(=O)/C(C#N)=C/c1c(N(Cc2ccccc2)Cc2ccccc2)nc2c(C)cccn2c1=O,inactive
17,Cc1ccc(O)c(NC2=C(Cl)C(=O)N(Cc3ccccc3)C2=O)c1,inactive
18,S=c1[nH]cc(-c2ccccc2)n1-c1ccccc1,inactive
19,CCSc1ncc(Cl)c(C(=O)Nc2sc3c(c2C(=O)NCc2cccnc2)CCCC3)n1,inactive
20,O=c1[nH]c(SCc2nc3ccccc3c(=O)n2-c2ccccc2C(F)(F)F)nc2ccccc12,inactive
21,Cc1cc(NC(=O)CCCC(=O)N(CC(=O)NC2CCCCC2)c2ccccc2)no1,inactive
22,COc1ccc(CC(=O)Nc2ccc3nc(C)sc3c2)cc1OC,inactive
23,O=[N+]([O-])c1c(NCCCO)cc(Sc2nc3ccccc3s2)c2nonc12,inactive
24,C/C(=N\NC(=O)Cc1cccn1C)c1ccc2ccccc2c1,inactive
25,COc1cc(NC(=S)NC(=O)c2cc(C)cc(C)c2)ccc1NC(=O)c1cccs1,inactive
26,CC(C(=O)Nc1ccc([N+](=O)[O-])cc1)N1CCN(C/C=C/c2ccccc2)CC1 (stereo not drawn),inactive

row,Compound,percent span
1,NNC(=O)COc1ccccc1F,inactive
2,NC(=O)CSc1nnc(Cn2cnc3ccccc32)o1,inactive
3,O=C(NCCCN1CCN(CCCNC(=O)c2cc([N+](=O)[O-])ccc2Cl)CC1)c1cc([N+](=O)[O-])ccc1Cl,inactive
4,Cc1cc(N2CCN(C)CC2)nc2ccc(NC(=S)N3CCN(c4ccc(F)cc4)CC3)cc12,inactive
5,O=C(CSc1nnc(-c2ccco2)n1Cc1ccccc1)c1ccccc1,inactive
6,N/C(=N\N=C/c1ccc(Br)cc1)N/N=C\c1ccc(Br)cc1,inactive
7,CCN1CCN(CC(=O)c2c[nH]c3ccc(C)cc23)CC1,inactive
8,Cc1ccc(/C=C/C(=O)Nc2ccc([N+](=O)[O-])c(NC(=O)/C=C/c3ccc(C)o3)c2)o1,inactive
9,CCOC(=O)c1cccc(Nc2ncnc3ccccc23)c1,inactive
10,CCOC(=O)C1=C(CC)Nc2ccccc2N=C1NC(=O)c1ccc(S(=O)(=O)N2CCOCC2)cc1,inactive
11,Cc1ccc(C(NC(=O)C(C)C)c2cc([N+](=O)[O-])c3cccnc3c2O)cc1 (stereo not drawn),inactive
12,O=C(NCCO)c1ccc2nc(-c3ccco3)c(-c3ccco3)nc2c1,inactive
13,CC(C)(C)C(=O)NC(NC(=S)Nc1ccc(S(N)(=O)=O)cc1)C(Cl)(Cl)Cl (stereo not drawn),inactive
14,CCCn1c(SCC(=O)Nc2ccccc2-c2ccccc2)nnc1-c1ccoc1C,inactive
15,Fc1ccc(/C=C2\CCCC3=C2NC(=S)NC3c2ccc(F)cc2)cc1 (stereo not drawn),inactive
16,Cc1cc(C)cc(NS(=O)(=O)c2ccc3c(c2)c(=O)n(C)c(=O)n3C)c1,inactive
17,Cc1ccc2cc(C)c(Sc3nnnn3-c3ccccc3)nc2c1,inactive
18,O=[N+]([O-])c1c(NCCO)cc(Sc2nc3ccccc3s2)c2nonc12,inactive
19,CCc1cccc(CC)c1NC(=S)N1CCn2cccc2C1c1cccnc1 (stereo not drawn),inactive
20,CCOC(=O)C1=C(Cc2ccc(C)cc2)C(=O)c2ccccc2C1=O,inactive
21,O=C(NCc1ccccn1)c1ccc2nc(-c3ccco3)c(-c3ccco3)nc2c1,inactive
22,Cc1noc(C)c1COc1ccc(C(=O)Nc2cccnc2)cc1,inactive
23,CCOC(=O)C1(CC/C(C)=N\NC(N)=O)CC(C)(C)OC1=O (stereo not drawn),inactive
24,Cc1ccc(S(=O)(=O)NC(=O)COc2ccccc2C)cc1,inactive
25,CN(CC(=O)O/N=C(\N)c1ccc([N+](=O)[O-])cc1)S(=O)(=O)c1ccccc1,inactive
26,COc1cc(/C=C2\CC/C(=C\c3cc(OC)c(O)c(OC)c3)C2=O)cc(OC)c1O,inactive

row,Compound,percent span
1,Cc1onc(-c2ccccc2)c1C(=O)Nc1nnc(COc2ccc(Cl)cc2)s1,inactive
2,CCOC(=O)c1ccc(N=c2ssnc2Cl)cc1,inactive
3,CN1CCc2cccc3c2[C@H]1Cc1ccc(O)c(O)c1-3,inactive
4,Fc1ccc(Cn2nnnc2C(c2ccc(Cl)cc2)N2CCSCC2)cc1 (stereo not drawn),inactive
5,Cc1cc(NC(=O)CSc2nnc(-c3cccnc3)n2Cc2ccccc2)no1,inactive
6,CC(C)CCN1CCN(Cc2cccc3cccnc23)CC1CCO (stereo not drawn),inactive
7,O=C(C1=NN(c2ccccc2)C2C(=O)N(c3ccccc3)C(=O)C12)c1ccccc1 (stereo not drawn),inactive
8,CC(=O)OCCCNc1cc(Sc2nc3ccccc3s2)c2nonc2c1[N+](=O)[O-],inactive
9,COc1ccc(C2=Nn3c(nnc3-c3ccccn3)SC2)cc1OC,inactive
10,O=C(CCl)Nc1cccc2ncccc12,inactive
11,COc1ccc(NC(=O)Cc2c(F)cccc2Cl)c(OC)c1,inactive
12,Cc1nc(NC(=O)CC(C)C)sc1-c1csc(Nc2ccc(Cl)cc2)n1,inactive
13,CC(C)c1ccc(C2CC(c3ccc(Br)cc3)=NN2C(N)=S)cc1 (stereo not drawn),inactive
14,COc1ccccc1NC(=O)CSc1nnc(-c2ccco2)n1Cc1ccco1,inactive
15,CC(=O)N1CCN(C(=O)c2ccc(-n3c(C)ccc3C)cc2)CC1,inactive
16,Cc1ccc(-c2cc(C(=O)Nc3cc(C(=O)O)ccc3C)c3ccccc3n2)cc1,inactive
17,COC(=O)CCC(=O)Nc1sc(C)c(C)c1C(N)=O,inactive
18,Cc1cc[n+]2cc(-c3cccc([N+](=O)[O-])c3)c(-c3cccc([N+](=O)[O-])c3)cc2c1,inactive
19,COc1ccc(NC(=O)C2=C(C)NC(=O)NC2c2cccc(OC)c2OC)c(OC)c1 (stereo not drawn),inactive
20,O=C(Nc1ccc(Cl)cn1)Nc1ccccc1F,inactive
21,CNc1ccc(Br)cc(C(=O)/C=C/c2ccc(OC)cc2OC)c1=O,inactive
22,O=C(Nc1ccccc1N1CCOCC1)c1cccs1,inactive
23,CN(C)c1ccc(C=C2C(=O)NC(=O)NC2=O)cc1[N+](=O)[O-],inactive
24,C/C(=C\c1ccco1)C1Nc2cccc3cccc(c23)N1,inactive
25,O=[N+]([O-])c1ccc(N2CCN(c3ccc(O)cc3)CC2)c(Cl)c1,inactive
26,Cc1ccc(-c2cc(-c3ccc(F)cc3)c(C#N)c(N)n2)o1,inactive

row,Compound,percent span
1,CC1Cc2ccccc2N1C(=O)c1ccc(N2CCCC2)c([N+](=O)[O-])c1 (stereo not drawn),inactive
2,Cc1ccc(-c2cc(C(=O)Nc3nccs3)c3ccccc3n2)o1,inactive
3,N=C1C(c2nc3ccccc3s2)=C(O)CN1Cc1ccccc1,inactive
4,CCOC(=O)/C(=C\c1cccc(O)c1)c1nc2sc(C)c(C)c2c(=O)[nH]1,inactive
5,CCN(CC)c1ccc(NC2=C(Cl)C(=O)c3ccccc3C2=O)cc1,inactive
6,O=C1c2ccccc2C(=O)N1c1cccc2cccnc12,inactive
7,Cc1cc(C)c2c(N)c3cccc(C)c3nc2n1,inactive
8,Clc1ccc(N=c2ssnc2Cl)nc1,inactive
9,CCCC(=O)OCCNc1cc(Sc2nccn2C)c2nonc2c1[N+](=O)[O-],inactive
10,O=[N+]([O-])c1ccc(N/N=C/c2ccc(O)c(O)c2O)c(S(=O)(=O)N2CCOCC2)c1,inactive
11,O=C(Cc1ccc(-c2ccccc2)cc1)NC1CCCC1,inactive
12,Cc1ccc(-c2cc(C(=O)Nc3ccccn3)c3ccccc3n2)o1,inactive
13,CC(C)Cc1cc(-c2ccco2)c(C#N)c(N)n1,inactive
14,COc1ccc(C2=Nc3cccc4cccc(c34)N2)cc1,inactive
15,CC1Cc2ccccc2N1C(=O)CSc1nnnn1-c1ccc2c(c1)OCCO2 (stereo not drawn),inactive
16,c1coc(C2=Nc3cccc4cccc(c34)N2)c1,inactive
17,COc1ccc(N2CCN(C(CNS(=O)(=O)c3ccc4c(c3)OCCO4)c3ccco3)CC2)cc1 (stereo not drawn),inactive
18,C=CCn1c(C)cc(-c2csc(NC)n2)c1C,inactive
19,Cc1ccc(SCCC(=O)Nc2ccc(Br)c(C)c2)cc1,inactive
20,Cc1ccc(-c2n[nH]c(=S)n2-c2ccccc2)cc1,inactive
21,CCCOc1ccc(-c2c(C(=O)N/N=C/c3ccc(OC)cc3)nnn2-c2nonc2N)cc1,inactive
22,CC(NCc1ccc(-c2ccccc2)cc1)C(O)c1ccccc1 (stereo not drawn),inactive
23,Cc1ccc(-c2cc(-c3ccccc3)c(C#N)c(N)n2)o1,inactive
24,CCOC(=O)C1=C(CP(=O)(c2ccccc2)c2ccccc2)NC(=O)NC1c1ccc(OC)cc1 (stereo not drawn),inactive
25,O=C(Nc1nnc(C2CC2)s1)C1Cc2ccccc2CN1S(=O)(=O)c1ccccc1F (stereo not drawn),inactive
